{"source": "patent US6603046B1", "about": "“Bis-aromatic a,β-unsaturated ketones” (Lica Pharmaceuticals A/S, priority 1992, dated 2003)", "key": {"BCG": {"system": "BCG", "format": "cell-based", "conditions": "n = 3"}, "[1]": {"experiment": "Reaction with N-acetyl-L-cysteine, HPLC (Example 26)", "format": "physicochemical", "conditions": "7 days", "method": "Formation of N-acetyl-L-cysteine conjugates of licochalcone A. A solution of 1.5 mg of licochalcone A and 100 mg of N-acetyl-L-cysteine in acetonitrile0.13 M aqueous potassium phosphate buffer solution pH 7.5 (1:3) was left for 7 days at ambient temperature protected from light."}, "[2]": {"system": "Staphylococcus aureus ATCC 25923", "experiment": "MIC, macrodilution (Example 17)", "format": "cell-based", "conditions": "ATCC25923"}, "L. pneumophilia": {"system": "L. pneumophilia", "experiment": "microbe, parasite or virus in culture", "format": "cell-based", "conditions": "Legionella pneumophila"}, "M. bovis": {"system": "M. bovis", "format": "cell-based", "conditions": "n = 8"}, "[3]": {"experiment": "Toxicity study in mice, i.v. and oral (Example 21)", "format": "in vivo, NMRI female mice", "method": "Drug. Licochalcone A solution was prepared as follows: 20 mg of licochalcone A was dissolved in 0.2 ml of ethanol. 60 mg of melted polyoxyethylene (23)lauryletherb (Brij 35) was added. 1.7 ml of phosphate buffer was then added while stirring on a warm plate. pH in the licochalcone A solution was adjusted to 7.3.\nMice. NMRI female mice (30-35 gram) in groups of 4 each were used for these studies. For the oral route experiment, the animals were fasted for 16 hrs with access to drinking water. Licochalcone A was suspended in 2% carboxymethylcellulose in water. This suspension was available for the mice in an amount of 0.1 ml per 10 gram body weight. The animals were observed every day for 7 days. For the intravenous injection experiment the animals were not fasted. Licochalcone A in solution (20 mg/ml) prepared as mentioned above was injected intravenously 0.1 ml per 10 gram body weight over a period of one hour and again 24 hrs later."}, "[4]": {"system": "Staphylococcus aureus ATCC 25923", "experiment": "MIC on control strain, aerobic and microaerophilic (Example 18)", "format": "cell-based", "conditions": "ATCC25923, 2 h, 2 hours incubation", "method": "Staphylococcus aureus ATCC 25923 was used as control strain. The Helicobacter pylori strains were subcultured on chocolate agar plates with cysteine in a microaerophilic atmosphere at 37° C. for 72 hours and kept frozen at −80° C. until assayed.\nThe MIC rows were incubated under microaerophilic conditions for two hours. Hereafter aliquots of 10 μl were taken from all dilution steps and plated on chocolate agar with cysteine and incubated in a microaerophilic atmosphere for 72 hours at 37° C. The control strain Staphylococcus aureus was incubated both aerobically and microaerophilically at 37° C. for 24 hours. All plates were read by the Karber method."}, "Strain = H37RV": {"system": "Strain = H37RV", "experiment": "MIC with and without 10% human serum", "format": "cell-based", "conditions": "for MIC: Mycobacterium tuberculosis, H37RV"}, "L. major promastigotes": {"system": "L. major promastigotes", "experiment": "Electron microscopy of L. major promastigotes (Example 11)", "format": "cell-based, Leishmania major", "conditions": "for diameter of mitochondria, Maximum (mean) / diameter of mitochondria, Minimum (mean): 24 hours"}, "[5]": {"system": "human lymphocytes, neutrophils, and monocytes", "experiment": "Trypan blue dye exclusion method", "format": "cell-based", "conditions": "20 μg/ml", "method": "Trypan blue dye exclusion method. This is a standard method used to determine cell viability. The assay is performed by incubating a given cell suspension with trypan blue for various periods of time after which the cells are examined under microscope. Dead cells will take up the dye and therefore show a blue colour. Percent viability is determined by counting at least a total of 200 cells."}}, "note": "Read-outs that look alike come from different tables or passages of the source."}
{"smiles": "C=CC(C)(C)c1cc(/C=C/C(=O)c2ccc(O)cc2)c(OC)cc1O", "note": "[Licochalcone A, licochalcone A]", "values": [{"measurement": "meanMIC", "setting": "BCG", "result": "meanMIC = 8.6 μg/ml"}, {"measurement": "meanMIC (second line)", "setting": "BCG", "result": "meanMIC = 40 μg/ml (n = 3)"}, {"measurement": "rangeMIC", "setting": "BCG", "result": "rangeMIC = 5-10 /ml (n = 3)"}, {"measurement": "stability in buffer without N-acetyl-L-cysteine", "setting": "[1]", "result": "No similar decrease"}, {"measurement": "reaction with N-acetyl-L-cysteine", "setting": "[1]; acetonitrile-phosphate buffer pH 7.5 (1:3), ambient temperature", "result": "decreased amounts of licochalcone A and appearance of two new peaks"}, {"measurement": "MIC", "setting": "[2]", "result": 18, "unit": "µg/mL"}, {"measurement": "MIC", "setting": "L. pneumophilia; L. pneumophilia serogr. 1, 4 strains", "result": "1 to 4", "unit": "µg/mL"}, {"measurement": "MIC", "setting": "L. pneumophilia; L. pneumophilia serogr. 2-7, 6 strains", "result": "2 to 4", "unit": "µg/mL"}, {"measurement": "MIC", "setting": "L. pneumophilia; read-out: MIC-values, clinical isolates", "result": "1 to 4", "unit": "µg/mL"}, {"measurement": "meanMIC", "setting": "M. bovis", "result": "meanMIC = 15.7 μg/ml"}, {"measurement": "rangeMIC", "setting": "M. bovis", "result": "rangeMIC = 10-20 μg/ml (n = 8)"}, {"measurement": "No. dead (after 7 days)", "setting": "[3]; 1000 mg/kg perorally, groups of 4", "result": "0 (after 7 days)"}, {"measurement": "No. dead (after 1 hr)", "setting": "[3]; i.v. 20 mg/kg, groups of 4", "result": 0}, {"measurement": "No. dead (after 1 hr)", "setting": "[3]; i.v. 50 mg/kg, groups of 4", "result": 1}, {"measurement": "No. dead (after 1 hr)", "setting": "[3]; i.v. 60 mg/kg, groups of 4", "result": 4}, {"measurement": "No. dead (after 1 hr)", "setting": "[3]; i.v. 100 mg/kg, groups of 4", "result": 4}, {"measurement": "Approximate LD50 i.v.", "setting": "[3]; mice", "result": "~55", "unit": "mg per kg body weight"}, {"measurement": "MIC", "setting": "[4]; microaerophilic conditions", "result": "> 500", "unit": "µg/mL"}, {"measurement": "MIC", "setting": "[4]; normal atmosphere", "result": 4, "unit": "µg/mL"}, {"measurement": "increase of MIC when supplemented with 10% of serum", "setting": "Strain = H37RV", "result": 8, "unit": "fold"}, {"measurement": "MIC", "setting": "Strain = H37RV; read-out: MIC+serum", "result": 40, "unit": "µg/mL"}, {"measurement": "MIC", "setting": "Strain = H37RV; read-out: MIC−serum", "result": 5, "unit": "µg/mL"}, {"measurement": "morphological changes of promastigotes", "setting": "L. major promastigotes; 1 μg/ml", "result": "no morphological changes"}, {"measurement": "diameter of mitochondria, Maximum (mean)", "setting": "L. major promastigotes; 1 μg/ml", "result": 203, "unit": "nm"}, {"measurement": "diameter of mitochondria, Minimum (mean)", "setting": "L. major promastigotes; 1 μg/ml", "result": 104, "unit": "nm"}, {"measurement": "diameter of mitochondria, Maximum (mean)", "setting": "L. major promastigotes; 5 μg/ml", "result": 548, "unit": "nm"}, {"measurement": "diameter of mitochondria, Minimum (mean)", "setting": "L. major promastigotes; 5 μg/ml", "result": 165, "unit": "nm"}, {"measurement": "percentage of L. major showing cytoplasmic granules", "setting": "L. major promastigotes; 5 μg/ml, control 50%", "result": 70, "unit": "%"}, {"measurement": "diameter of mitochondria, Maximum (mean)", "setting": "L. major promastigotes; 10 μg/ml", "result": 1043, "unit": "nm"}, {"measurement": "diameter of mitochondria, Minimum (mean)", "setting": "L. major promastigotes; 10 μg/ml", "result": 294, "unit": "nm"}, {"measurement": "toxic effect, trypan blue dye exclusion", "setting": "[5]", "result": "no toxic effect"}]}
